Measurements from patent publication US8148058B2, “Method for screening allergic disease-related molecule and cell lines to be used in the method” (Tokyo University of Science Educational Foundation …, priority 2006, dated 2012).

Experiments:
RCCM cells = assay: Proliferation of RCCM cells, 3H-thymidine uptake; assay type: cell-based, mouse; conditions: 48 hours culture, then 12 hours 3H-thymidine; for proliferation of RCCM cells in response to inhibitor (uptake amount of 3H-thymidine): 1/2 serial dilutions starting with 10 ng/ml
Protocol: (§1) R cells, N62.5 cells, or RCCM cells obtained in Example 1 were placed in each well of a 96-well microplate at a seeding density of 1.5×10^4 cells/well. A culture medium in which the content of RCGF was changed was used and the sensitivities of the cells to RCGF were confirmed.
(§2) The concentrations of RCGF were set to 10 v/v %, 0.1 v/v %, and 0 v/v %. The cells were cultured in an RPMI 1640 culture medium containing 10% by volume of serum at 37° C. in 5% CO2 atmosphere for 48 hours. Thereafter, ^3H-thymidine was added to the culture medium so as to give a final concentration of 0.5 μCi/ml, and the resultant was further cultured for 12 hours and the uptake amount of ^3H during the time was measured. After the reaction, the uptake amount of ^3H-thymidine was measured using MicroBeta TRIL UX (manufactured by WALLAC). In FIGS. 1 (A) to (C), black rhombuses indicate RCCM cells, black squares indicate R cells, and black triangles indicate N62.5 cells.
R cells, N62.5 cells, or RCCM cells obtained in Example 1 were placed in each well of a 96-well microplate at a seeding density of 1.5×10^4 cells/well.
(§3) In this regard, the concentration of RCGF was based on ½ serial dilutions (starting with 80% by volume of the culture medium). […] Thereafter, ^3H-thymidine was added to the culture medium so as to give a final concentration of 0.5 μCi/ml, and the resultant was further cultured for 12 hours and the uptake amount of ^3H during the time was measured. […]
R cells, N62.5 cells, or RCCM cells obtained in Example 1 were placed in each well of a 96-well microplate at a seeding density of 1.5×10^4 cells/well in the same manner as described in Example 4. ½ serial dilutions (starting with 10 ng/ml) of phorbol 12-myristate 13 acetate (PMA) were added to each well, and culturing was performed at 37° C. in 5% CO2 atmosphere for 48 hours. Thereafter, ^3H-thymidine was added to the culture medium so as to give a final concentration of 0.5 μCi/ml, which was further cultured for 12 hours and the uptake amount of ^3H during the time was measured. […]

N62.5 cells = assay: Proliferation of N62.5 cells, 3H-thymidine uptake; assay type: cell-based, mouse; conditions: 48 hours culture, then 12 hours 3H-thymidine
Protocol: as §1
as §2, with “cells. […]” for “cells.”
as §3

R cells = assay: Proliferation of R cells, 3H-thymidine uptake; assay type: cell-based, mouse; conditions: 1/2 serial dilutions starting with 10 ng/ml; 48 hours culture, then 12 hours 3H-thymidine
Protocol: as §1
as §2, with “cells. […]” for “cells.”
as §3

P185 cells = assay: Proliferation of P185 cells (basophil-like cell line), 3H-thymidine uptake; assay type: cell-based; conditions: 1/2 serial dilutions starting with 10 ng/ml; 48 hours culture, then 12 hours 3H-thymidine
Protocol: R cells, N62.5 cells, or RCCM cells obtained in Example 1 and P185 cells (a basophil-like cell line) were placed in each well of a 96-well microplate at a seeding density of 1.5×10^4 cells/well in the same manner as described in Example 4. ½ serial dilutions (starting with 10 ng/ml) of LY294002 (a PI3K inhibitor; Cat No. FA-002, manufactured by SuperArray) and Rottlerin (a PKC inhibitor; Cat No. 557370, manufactured by CALBIOCHEM) were added to each well, which was cultured at 37° C. in a 5% CO2 atmosphere for 48 hours. Thereafter, ^3H-thymidine was added to the culture medium so as to give a final concentration of 0.5 μCi/ml, and culturing was further performed for 12 hours and the uptake amount of ^3H during the time was measured. In FIGS. 7 and 8, black squares indicate R cells, black triangles indicate N62.5 cells, black rhombuses indicate RCCM cells, and black circles indicate P185. FIG. 7 is a graph showing the response of respective cells to LY294002. FIG. 8 is a graph showing the response of respective cells to Rottlerin.

R cell = assay: Maintenance / growth potential of R cells in culture with cytokines or RCGF; assay type: cell-based, mouse
Protocol: Further, anti-Thy1.2 antibodies (manufactured by Pharmingen) and complement (rabbit serum, manufactured by Pel-Freeze) were respectively added to the resulting culture at 1 μg/ml and at a final concentration of 10% by volume per 1×10^7 cells/100 μl. After about 30 minutes of reaction, […] therefrom and the cultivation was continued while the RCGF was added at various concentrations.
Thereafter, respective cell lines were cultured in accordance with the dilution method over the course of three weeks and cloned.

**Q.** How did the “proliferation of RCCM cells in response to inhibitor (uptake amount of 3H-thymidine)” value (RCCM cells) turn out when CCCCCCCCCCCCCC(=O)O[C@@H]1[C@@H](C)[C@@]2(O)[C@@H](C=C(CO)C[C@]3(O)C(=O)C(C)=C[C@@H]23)[C@@H]2C(C)(C)[C@]12OC(C)=O [PMA, phorbol 12-myristate 13 acetate] was run?
**A.** Its value is “suppressed by a low concentration”.

**Q.** Which results are given for CC(=O)c1c(O)c(C)c(O)c(Cc2c(O)c3c(c(C(=O)/C=C/c4ccccc4)c2O)OC(C)(C)C=C3)c1O [Rottlerin]?
**A.** proliferation of N62.5 cells in response to inhibitor (uptake amount of 3H-thymidine) (N62.5 cells; 1/2 serial dilutions starting with 10 ng/ml): rapidly suppressed; proliferation of RCCM cells in response to inhibitor (uptake amount of 3H-thymidine) (RCCM cells): rapidly suppressed; proliferation of R cells in response to inhibitor (uptake amount of 3H-thymidine) (R cells): rapidly suppressed; proliferation of basophil-like cell line P185 in response to inhibitor (uptake amount of 3H-thymidine) (P185 cells): growth inhibition

**Q.** How did the “sensitivity / growth potential of R cell against cytokine” value (from here on “sensitivity / growth potential”) (R cell) turn out when GM-CFS: cytokine was run?
**A.** Its value is “does not show sensitivity”.

**Q.** For IFN-γ: cytokine, which “sensitivity / growth potential” value (R cell) is on record?
**A.** Its value is “does not show sensitivity”.

**Q.** With IL-5: interleukin, Th2 type cytokine as the molecule, how does the “sensitivity / growth potential” value (R cell) read?
**A.** The value was “high growth potential”.

**Q.** IL-6: interleukin, Th2 type cytokine was tested. Which “sensitivity / growth potential” value (R cell) did it give?
**A.** Its value is “high growth potential”.

**Q.** How did the “sensitivity / growth potential” value (R cell) turn out when IL-9: interleukin, Th2 type cytokine was run?
**A.** The value was “high growth potential”.

**Q.** Which “sensitivity / growth potential” value (R cell) does the source give for IL-13: interleukin, Th2 type cytokine here?
**A.** Its value is “high growth potential”.

B1: IL-10: cytokine (protein, UniProt P22301 19-178, looked up)
Interleukin-10: SPGQGTQSENSCTHFPGNLPNMLRDLRDAFSRVKTFFQMKDQLDNLLLKESLLEDFKGYLGCQALSEMIQFYLEEVMPQAENQDPDIKAHVNSLGENLKTLRLRLRRCHRFLPCENKSKAVEQVKNAFNKLQEKGIYKAMSEFDIFINYIEAYMTMKIRN
**Q.** B1 was tested. Which “sensitivity / growth potential” value (R cell) did it give?
**A.** Its value is “does not show sensitivity”.

B2: IL-7: cytokine (protein, UniProt P13232 26-177, looked up)
Interleukin-7: DCDIEGKDGKQYESVLMVSIDQLLDSMKEIGSNCLNNEFNFFKRHICDANKEGMFLFRAARKLRQFLKMNSTGDFDLHLLKVSEGTTILLNCTGQVKGRKPAALGEAQPTKSLEENKSLKEQKKLNDLCFLKRLLQEIKTCWNKILMGTKEH
**Q.** How did the “sensitivity / growth potential” value (R cell) turn out when B2 was run?
**A.** The value was “does not show sensitivity”.

B3: IL-4: recombinant cytokine, manufactured by PeproTech (protein, UniProt P05112 25-153, looked up)
Interleukin-4: HKCDITLQEIIKTLNSLTEQKTLCTELTVTDIFAASKNTTEKETFCRAATVLRQFYSHHEKDTRCLGATAQQFHRHKQLIRFLKRLDRNLWGLAGLNSCPVKEANQSTLENFLERLKTIMREKYSKCSS
**Q.** Which results are given for B3?
**A.** proliferative response of N62.5 cells to RCGF / cytokines (uptake amount of 3H-thymidine) (N62.5 cells; various concentrations): did not show sensitivity; proliferative response of RCCM cells to RCGF / cytokines (uptake amount of 3H-thymidine) (RCCM cells; various concentrations): no difference in growth potential; sensitivity / growth potential of R cell against cytokine (R cell): high growth potential
